In paper PMC5817852 (The Open Medicinal Chemistry Journal, 2018):
Where two headings read alike, the source gives them in different places.

Experiments:
[1] = system: PC3 prostate cancer cell line; assay: qHTS cell viability screen (Cell Titer Glo), PC3; type: cell-based; conditions: PC3 prostate, 72 hours, cell viability Cell Titer Glo, read-out: CC50 PC3
[2] = system: MDA-MB-231 breast cancer cell line; assay: qHTS cell viability screen (Cell Titer Glo), MDA-MB-231; type: cell-based
[3] = system: HT29 colorectal carcinoma; assay: qHTS cell viability screen (Cell Titer Glo), HT29; type: cell-based
[4] = BJ cell cytotoxicity counter screen; conditions: human, BJ cells (normal human foreskin fibroblast cell line)
Text: (§1) Most analogs in the presented series are lipophilic while also containing a positively charged amine. Lipophilic basic amines can accumulate in cell membranes if their lipophilic atom groups form favorable non-polar contacts with lipid chains while their charged amine is interacting with fatty acid head groups. Such association with lipids can lead to cytotoxicity through membrane destabilization. Therefore, we evaluated a number of representative compounds against BJ cells, a normal human foreskin fibroblast cell line, where cytotoxicity was determined at 10 µM drug concentration, as described previously.
(§2) minimum locked at 0 and 100 respectively.
(§3) children with ALL in relapse.
(§4) foreskin fibroblast cell line (BJ).
(§5) Table 2. […] SSA: Sulindac sulfide

[5] = system: BJ cells, normal human foreskin fibroblast cell line; assay: BJ cell cytotoxicity counter screen; conditions: read-out: EC50 BJ (cytotoxicity); BJ normal human foreskin fibroblasts; confidence intervals in parentheses
Text: as §1, §2, §3, §4, §5

[6] = Homo sapiens, MDA-MB-231, 96 h, MDA-MB-231 breast, 96 hours, cell viability Cell Titer Glo, read-out: CC50 MDA-MB-231
[7] = Homo sapiens, HT-29, 72 h, HT29 colorectal carcinoma, 72 hours, cell viability Cell Titer Glo, read-out: CC50 HT29
[8] = MDA-MB-231 breast, 96 hours, cell viability Cell Titer Glo, read-out: CC50 MDA-MB-231
[9] = HT29 colorectal carcinoma, 72 hours, cell viability Cell Titer Glo, read-out: CC50 HT29

Row | Structure (SMILES) | CC50 [1] [µM] | CC50 ([1]; 72 h) [µM] | CC50 [2, 6] [µM] | CC50 [3, 7] [µM] | other results
1 | CSc1ccc(/C=C2/C(C)=C(CN(Cc3ccco3)Cc3ccco3)c3cc(F)ccc32)cc1 [Compound 54] | > 50 | – | – | – | CC50 [2]: 48.8 ± 20.3 µM; CC50 [3]: > 50 µM
2 | CSc1ccc(/C=C2/C(C)=C(CCNCCN(C)C)c3cc(F)ccc32)cc1 [Compound 10] | – | 4.38 ± 0.25 | 3.42 ± 1.5 | 1.97 ± 0.18 | –
3 | CCS(=O)(=O)NCC1=C(C)/C(=C/c2cc(OC)c(OC)c(OC)c2)c2ccc(F)cc21 [Compound 42] | – | 15.1 ± 1.84 | 6.58 ± 1.39 | 15.6 ± 5.56 | melting point: 132 to 134 °C
4 | COc1cc(/C=C2/C(C)=C(CNS(=O)(=O)c3ccccc3)c3cc(F)ccc32)cc(OC)c1OC [Compound 43] | 40.9 ± 16.8 | – | – | – | CC50 [2, 8]: 16.3 ± 3.96 µM; CC50 [3, 9]: 43.8 ± 23 µM
5 | COc1cc(/C=C2/C(C)=C(CNS(C)(=O)=O)c3cc(F)ccc32)cc(OC)c1OC [Compound 41] | 18.9 ± 2.47 | – | – | – | CC50 [2, 8]: 12.9 ± 1.79 µM; CC50 [3, 9]: 20 ± 4.86 µM
6 | COc1cc(/C=C2/C(C)=C(CN(Cc3ccco3)Cc3ccco3)c3cc(F)ccc32)cc(OC)c1OC [Compound 61] | > 50 | – | – | – | CC50 [2]: > 50 µM; CC50 [3]: > 50 µM
7 | CSc1ccc(/C=C2/C(C)=C(CN)c3cc(F)ccc32)cc1 [Compound 16] | – | 33.6 ± 6.59 | 19.3 ± 2.12 | 16 ± 6.08 | –
8 | COc1cc(/C=C2/C(C)=C(CN(CCc3ccccc3)CCc3ccccc3)c3cc(F)ccc32)cc(OC)c1OC [Compound 60] | – | > 50 | > 50 | > 50 | –
9 | CC1=C(CCNCc2ccccc2)c2cc(F)ccc2/C1=C\c1ccc(S(C)(=O)=O)cc1 [Compound 12] | – | 7.02 ± 0.48 | 4.52 ± 0.77 | 3.39 ± 0.28 | melting point: 96 to 98 °C
10 | COc1cc(/C=C2/C(C)=C(CNS(=O)(=O)c3ccc(C)cc3)c3cc(F)ccc32)cc(OC)c1OC [Compound 44] | > 50 | – | – | – | CC50 [2, 8]: 44.5 ± 25.7 µM; CC50 [3, 9]: > 50 µM
11 | CSc1ccc(/C=C2/C(C)=C(CCN)c3cc(F)ccc32)cc1 [Compound 13] | – | 7.46 ± 0.46 | 7.2 ± 0.29 | 4.05 ± 0.16 | EC50 [4]: > 7.57 µM
12 | CSc1ccc(/C=C2/C(C)=C(CN(Cc3ccc4ccccc4c3)Cc3ccc4ccccc4c3)c3cc(F)ccc32)cc1 [Compound 52] | > 50 | – | – | – | CC50 [2]: > 50 µM; CC50 [3]: > 50 µM
13 | CSc1ccc(/C=C2/C(C)=C(CN(Cc3ccccc3)Cc3ccccc3)c3cc(F)ccc32)cc1 [Compound 48] | – | > 50 | > 50 | > 50 | –
14 | COc1cc(/C=C2/C(C)=C(CN(Cc3ccccc3)Cc3ccccc3)c3cc(F)ccc32)cc(OC)c1OC [Compound 55] | > 50 | – | – | – | CC50 [2]: > 50 µM; CC50 [3]: > 50 µM
15 | CSc1ccc(/C=C2/C(C)=C(CN(Cc3ccc(N(C)C)cc3)Cc3ccc(N(C)C)cc3)c3cc(F)ccc32)cc1 [Compound 51] | > 50 | – | – | – | CC50 [2]: > 50 µM; CC50 [3]: > 50 µM
16 | CSc1ccc(/C=C2/C(C)=C(CNC(=O)Cc3ccccc3)c3cc(F)ccc32)cc1 [Compound 18] | – | 18.9 ± 9.71 | 4.06 ± 1.97 | 3.56 ± 1.25 | –
17 | COc1cc(/C=C2/C(C)=C(CNC(C)=O)c3cc(F)ccc32)cc(OC)c1OC [Compound 28] | – | 23.3 ± 2.61 | 5.77 ± 1.55 | 6.44 ± 1.4 | melting point: 183 to 185 °C
18 | CSc1ccc(/C=C2/C(C)=C(CCNCc3ccco3)c3cc(F)ccc32)cc1 [Compound 8] | 9.94 ± 0.77 | – | – | – | CC50 [2, 8]: 7.77 ± 0.54 µM; CC50 [3, 9]: 4.27 ± 0.33 µM; EC50 [5]: > 7.57 µM
19 | COc1cc(/C=C2/C(C)=C(CN(Cc3ccc(F)cc3)Cc3ccc(F)cc3)c3cc(F)ccc32)cc(OC)c1OC [Compound 57] | > 50 | – | – | – | CC50 [2]: > 50 µM; CC50 [3]: > 50 µM
20 | CSc1ccc(/C=C2/C(C)=C(CNS(C)(=O)=O)c3cc(F)ccc32)cc1 [Compound 34] | – | 20.2 ± 3.2 | 9.06 ± 2.26 | 7.43 ± 0.48 | melting point: 159 to 160 °C; EC50 [4]: > 22.7 µM
21 | CSc1ccc(/C=C2/C(C)=C(CNS(=O)(=O)c3cccc4c(N(C)C)cccc34)c3cc(F)ccc32)cc1 [Compound 40] | > 50 | – | – | – | CC50 [2, 8]: > 50 µM; CC50 [3, 9]: 38.4 ± 10.1 µM
22 | CSc1ccc(/C=C2/C(C)=C(CNS(=O)(=O)c3ccc(C)cc3)c3cc(F)ccc32)cc1 [Compound 37] | > 50 | – | – | – | CC50 [2, 8]: 20.5 ± 5.18 µM; CC50 [3, 9]: 8.08 ± 0.6 µM
